Test results published in ChEMBL document CHEMBL1145800, “QSAR and proteo-chemometric analysis of the interaction of a series of organic compounds with melanocortin receptor subtypes” (J Med Chem, 2003).

What was measured:
Melanocortin receptor 3 = Melanocortin receptor 3 (Homo sapiens, UniProt P41968); assay: Binding affinity towards Melanocortin 3 receptor, expressed as negative log of the Ki value
Melanocortin receptor 4 = Melanocortin receptor 4 (Homo sapiens, UniProt P32245); assay: Binding affinity towards Melanocortin 4 receptor, expressed as negative log of the Ki value
[1] = target: Melanocyte-stimulating hormone receptor (Homo sapiens, UniProt Q01726); assay: Binding affinity towards Melanocortin 1 receptor, expressed as negative log of the Ki value
Melanocortin receptor 5 = Melanocortin receptor 5 (Homo sapiens, UniProt P33032); assay: Binding affinity towards Melanocortin 5 receptor, expressed as negative log of the Ki value
Sequence of Melanocortin receptor 5 (P33032 whole entry): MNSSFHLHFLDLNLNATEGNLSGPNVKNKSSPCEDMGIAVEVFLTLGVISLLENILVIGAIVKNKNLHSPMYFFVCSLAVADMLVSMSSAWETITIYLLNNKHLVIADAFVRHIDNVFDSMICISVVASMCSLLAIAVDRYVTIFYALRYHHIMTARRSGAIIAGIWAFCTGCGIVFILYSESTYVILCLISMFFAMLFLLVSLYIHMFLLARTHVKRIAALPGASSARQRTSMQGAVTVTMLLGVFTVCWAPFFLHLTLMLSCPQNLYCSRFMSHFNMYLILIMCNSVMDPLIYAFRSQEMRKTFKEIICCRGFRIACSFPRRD

Sequence of Melanocortin receptor 4 (P32245 whole entry): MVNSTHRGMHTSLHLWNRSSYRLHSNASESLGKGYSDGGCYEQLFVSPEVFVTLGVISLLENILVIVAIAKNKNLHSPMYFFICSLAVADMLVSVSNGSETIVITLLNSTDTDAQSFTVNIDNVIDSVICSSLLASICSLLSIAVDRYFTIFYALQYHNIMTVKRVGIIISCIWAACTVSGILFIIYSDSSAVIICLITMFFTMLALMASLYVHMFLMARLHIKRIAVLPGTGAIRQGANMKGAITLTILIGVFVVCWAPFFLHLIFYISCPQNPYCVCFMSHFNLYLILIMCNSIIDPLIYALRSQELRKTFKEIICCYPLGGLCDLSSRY
Sequence of Melanocyte-stimulating hormone receptor (Q01726 whole entry): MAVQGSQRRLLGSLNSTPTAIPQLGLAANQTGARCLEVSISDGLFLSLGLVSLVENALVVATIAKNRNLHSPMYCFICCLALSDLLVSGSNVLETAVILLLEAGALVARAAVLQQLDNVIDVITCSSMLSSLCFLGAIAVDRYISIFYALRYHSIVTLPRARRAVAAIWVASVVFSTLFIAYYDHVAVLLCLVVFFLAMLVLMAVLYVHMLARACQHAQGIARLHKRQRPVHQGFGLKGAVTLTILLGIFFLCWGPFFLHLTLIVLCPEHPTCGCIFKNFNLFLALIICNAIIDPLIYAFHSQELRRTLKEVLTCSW
Sequence of Melanocortin receptor 3 (P41968 whole entry): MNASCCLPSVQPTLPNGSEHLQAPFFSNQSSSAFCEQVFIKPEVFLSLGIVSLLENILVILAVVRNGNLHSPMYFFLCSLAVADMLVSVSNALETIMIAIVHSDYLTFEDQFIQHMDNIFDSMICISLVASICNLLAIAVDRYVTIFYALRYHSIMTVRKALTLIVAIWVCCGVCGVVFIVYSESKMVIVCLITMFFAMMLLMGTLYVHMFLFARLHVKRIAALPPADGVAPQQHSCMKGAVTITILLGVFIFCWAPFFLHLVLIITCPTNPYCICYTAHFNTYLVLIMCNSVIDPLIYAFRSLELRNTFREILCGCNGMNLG

| Ki (Melanocortin receptor 3) | Ki (Melanocortin receptor 4) | Ki [1] | Ki (Melanocortin receptor 5) | Compound |
| --- | --- | --- | --- | --- |
| 7.94 µM | 5.01 µM | 631 nM |  | NC(N)=NCCC[C@H](N)C(=O)N(Cc1ccc2ccccc2c1)Cc1cccc2ccccc12 |
| 50.1 µM | 25.1 µM | 631 nM | 39.8 µM | NCCCNC(=O)[C@H](CNCc1c[nH]c2ccccc12)NCc1ccc2ccccc2c1 |
| 5.01 µM | 31.6 µM | 3980 nM | 1000 µM | N=C(N)NCCCNC(=O)[C@H](CCCN=C(N)N)NCc1ccc2ccccc2c1 |
| 31.6 µM | 2 µM | 1580 nM | 3.98 µM | NCCCCCC(=O)N(Cc1ccc2ccccc2c1)Cc1cccc2ccccc12 |
